Reference: PubChem BioAssay (NCI)
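Exposure lasted 48 hours, with cells grown in 96-well plates and compounds tested at five concentrations. TGI: total growth inhibition.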

What was measured:
Assay in all cases: NCI-60 cell line screen, 48 h
786-0 renal = test system: 786-0 renal
A498 renal = test system: A498 renal
A549 NSCLC = test system: A549 NSCLC
CAKI-1 renal = test system: CAKI-1 renal
DU-145 prostate = test system: DU-145 prostate
HCT-116 colon = test system: HCT-116 colon
HOP-92 NSCLC = test system: HOP-92 NSCLC
HS 578T breast = test system: HS 578T breast
K-562 leukemia = test system: K-562 leukemia
LOX IMVI melanoma = test system: LOX IMVI melanoma
MDA-MB-435 = test system: MDA-MB-435
MOLT-4 leukemia = test system: MOLT-4 leukemia
NCI/ADR-RES ovarian = test system: NCI/ADR-RES ovarian
PC-3 prostate = test system: PC-3 prostate
RPMI-8226 leukemia = test system: RPMI-8226 leukemia
SN12C renal = test system: SN12C renal
SR leukemia = test system: SR leukemia
UACC-257 melanoma = test system: UACC-257 melanoma
UO-31 renal = test system: UO-31 renal
MCF7 breast = test system: MCF7 breast

Row | Compound | TGI (786-0 renal) | TGI (A498 renal) | TGI (A549 NSCLC) | TGI (CAKI-1 renal) | TGI (DU-145 prostate) | TGI (HCT-116 colon) | TGI (HOP-92 NSCLC) | TGI (HS 578T breast) | TGI (K-562 leukemia) | TGI (LOX IMVI melanoma) | TGI (MDA-MB-435) | TGI (MOLT-4 leukemia) | TGI (NCI/ADR-RES ovarian) | TGI (PC-3 prostate) | TGI (RPMI-8226 leukemia) | TGI (SN12C renal) | TGI (SR leukemia) | TGI (UACC-257 melanoma) | TGI (UO-31 renal) | TGI (MCF7 breast)
1 | ClCCN1CCOC1=Nc1ccc2c(c1)CCCC2 | 35.3 µM | 23 µM | 57.5 µM | 53.8 µM | 48.4 µM | 26.8 µM | 30.7 µM | 72 µM | > 100 µM | 32.3 µM | 29.2 µM | 39.9 µM | 51.9 µM | 23 µM | 26.2 µM | 27 µM | 61.1 µM | 13.2 µM | 30.3 µM | 
2 | O=C(O)c1ccc(-c2nc3ccc(Cl)cc3[nH]2)cc1 | > 100 µM |  | > 100 µM | > 100 µM |  |  | > 100 µM | > 100 µM | > 100 µM |  |  | > 100 µM | > 100 µM | > 100 µM | > 100 µM | > 100 µM | > 100 µM |  | > 100 µM | > 100 µM
3 | CCC(=O)N1NC(=O)C(CC)(CC)C1=O | > 100 µM |  | > 100 µM | > 100 µM | > 100 µM | > 100 µM |  | > 100 µM | > 100 µM | > 100 µM | > 100 µM | > 100 µM | > 100 µM | > 100 µM | > 100 µM | > 100 µM | > 100 µM | > 100 µM | > 100 µM | > 100 µM
4 | O=C1c2ccccc2-c2c1c(-c1ccc([N+](=O)[O-])cc1)nc1ccc3ccccc3c21 | > 100 µM | > 100 µM | > 100 µM | > 100 µM | > 100 µM | > 100 µM |  | > 100 µM | > 100 µM |  | > 100 µM | > 100 µM | > 100 µM | > 100 µM | > 100 µM | > 100 µM |  | > 100 µM | > 100 µM | > 100 µM
5 | COC(=O)C1C(OC(=O)C(Cl)(c2ccccc2)c2ccccc2)CC2CCC1N2C (configuration not stated) | > 100 µM |  | > 100 µM | > 100 µM | > 100 µM | > 100 µM |  |  | > 100 µM | > 100 µM | > 100 µM | > 100 µM | > 100 µM | > 100 µM | > 100 µM | > 100 µM | > 100 µM | > 100 µM | > 100 µM | > 100 µM
6 | CCCCCC[C@H]1CC(=O)C2CCCC[C@@]23CC[C@H](CCl)N13 (some centres not stated) (tested in a mixture with another compound) | > 100 µM | > 100 µM | > 100 µM | > 100 µM | > 100 µM | > 100 µM | 79.6 µM | 60.4 µM | > 100 µM |  | > 100 µM |  |  | 90.6 µM | 61.6 µM | > 100 µM |  | > 100 µM | > 100 µM | 96.9 µM
7 | CN(C)c1nc2n(CCO)c(-c3ccccc3)c(-c3ccccc3)nc-2c(=O)n1 | > 100 µM | > 100 µM | > 100 µM | > 100 µM | > 100 µM | > 100 µM | > 100 µM | > 100 µM | > 100 µM | > 100 µM | > 100 µM | > 100 µM | > 100 µM | > 100 µM | > 100 µM | > 100 µM | > 100 µM | > 100 µM | > 100 µM | 
8 | COCc1cc2c(cc1/C(=C/[N+](=O)[O-])CS(=O)(=O)c1ccccc1)OCO2 | > 100 µM | > 100 µM | > 100 µM | > 100 µM | > 100 µM | > 100 µM | > 100 µM | > 100 µM | > 100 µM | > 100 µM | > 100 µM | > 100 µM | > 100 µM |  | > 100 µM | > 100 µM | > 100 µM | > 100 µM | > 100 µM | > 100 µM
9 | COc1cc(/C=C/C(=O)OCCc2ccccc2)ccc1O | 30.4 µM |  | 38.9 µM | 29.7 µM | 30.4 µM | 31.6 µM |  | 50 µM | 85.4 µM | 36.1 µM | 27.3 µM | 37.9 µM | 60.6 µM | 28 µM | 65.9 µM | 36.7 µM | 83.5 µM | 32.4 µM | 27.3 µM | 44.8 µM
10 | CCCCOC(=O)NC(Nc1ccc(S(=O)(=O)Nc2ccc(OC)nn2)cc1)(C(F)(F)F)C(F)(F)F | > 100 µM | > 100 µM | > 100 µM | > 100 µM | > 100 µM | > 100 µM | > 100 µM |  | > 100 µM | > 100 µM | > 100 µM | > 100 µM | > 100 µM | > 100 µM | > 100 µM | > 100 µM | > 100 µM | > 100 µM | > 100 µM | > 100 µM
11 | COc1ccc(/C=C2\N=C3Sc4c(nc[nH]c4=O)N3C2=O)cc1 | > 100 µM | > 100 µM | > 100 µM | > 100 µM | > 100 µM | > 100 µM | > 100 µM | > 100 µM | > 100 µM | > 100 µM | > 100 µM | > 100 µM | > 100 µM | > 100 µM | > 100 µM | > 100 µM |  | > 100 µM | > 100 µM | > 100 µM
12 | COc1ccc2c(c1)c1c(n2CCN(C)C)-c2cccc(OC)c2CC1 | > 100 µM | 44.9 µM | 40.9 µM | 29.1 µM | 39.5 µM | 50.3 µM | 44.2 µM | 33.5 µM | 16.4 µM | 37.4 µM | 28 µM | 26.8 µM | 47.3 µM | 24.2 µM | 18.2 µM | 35.5 µM |  | 37.7 µM | 35.4 µM | 29.5 µM
13 | CN(Cc1cnc2nc(N)nc(N)c2n1)c1ccc(C(=O)NCS(=O)(=O)O)cc1 | > 100 µM | > 100 µM | > 100 µM |  | 82.7 µM | > 100 µM | > 100 µM | > 100 µM | > 100 µM | > 100 µM | > 100 µM | > 100 µM | > 100 µM | > 100 µM | > 100 µM | > 100 µM |  | > 100 µM | > 100 µM | > 100 µM
